From US20200397332A1, “NON-INVASIVE METHOD AND DEVICE FOR DETERMINING DRUG CONCENTRATIONS IN BLOOD” (priority 2019, published 2020)
Values belong to the compound of their own block, whether it stands above or below them.

Experiments:
[1] = caffeine: one cup of coffee (100 mg caffeine); alcohol: no sign of alcohol in blood; cited from earlier work
[2] = clinical; details: human, in vivo, po
Excerpt: FIG. 6 is illustrative of the GM magnetic signal vs time at different pressures by adjusting the pressure applied by the pressure cuff 12 on the arm of the patient. Initially, the cuff pressure is zero and the GM signal is flat. After around 10 seconds, the cuff pressure is increased and after 20 seconds, the cuff pressure reaches approximately 120 mm Hg. […] The GM signal is almost flat from 20 seconds to 60 seconds because the flow of blood through the blood vessel is stopped. When the cuff pressure was released quickly at about 60 seconds, the GM signal returned to the level similar to the initial measurement. […] At the pressure of 120 mm Hg or greater there is, no arterial blood flow and no electrical current. The difference of two levels in the beginning and around 60 seconds gives the absolute value of the magnetic field which is detected by the GM sensor. […]
Basic data for the detected drugs includes the initial dosages of the drug Din which depend on the maximum concentration Cmax in blood at a certain time Tmax. […] The absolute value of the drug concentration is determined based on the measured signal Vs and time Tmax at which the concentration of drug is detected at a maximum value in the blood stream.
The signal Vs was measured at different times after ingestion of the caffeine to verify the time dependence of the drug concentration in blood. […]

[3] = Din=50 mg caffeine; taken from known drug data; cited from earlier work
[4] = clinical; details: human, in vivo, po; remark: listed apart in the source
Method: The Tmax can be identified from this dependence.
FIG. 11 is illustrative of the relative change in charge of the ions inside the arterial blood stream vs time after ingesting 500 mg of acetaminophen. […] The Tmax can be identified from this graph, and is detected as being approximately 30 min.
The initial dosage is Din is ˜500 mg of acetaminophen. The maximum drug concentration in arterial blood stream is 60 mg/L at Din=500 mg ([…]) and Tmax˜30 min from the measurements from the GM sensor.
Vs. The next step is to calculate (Vs0−Vs)0.

[5] = Din=500 mg acetaminophen; taken from known drug data; cited from earlier work

SMILES: Cn1c(=O)c2c(ncn2C)n(C)c1=O [caffeine]
time after which the level in blood has declined to zero [1]: about 4 hours
Tmax [2]: ~2 h
Cmax, maximum drug concentration in the arterial blood stream [3]: about 1 mg/L

SMILES: CCO [alcohol]
time after which the level in blood has declined to zero [1]: about 12 hours

Tmax [4]: ~0.5 h
SMILES: CC(=O)Nc1ccc(O)cc1 [acetaminophen]
Cmax, maximum drug concentration in arterial blood stream [5]: 60 µg/mL
